Assay results: patent US9744250B2, “Chemical model of a neurodegenerative disease, method for preparation and uses of same” (priority 2012, dated 2017)

Assays:
[1] = system: alpha-synuclein in the striata; assay: Immunolabeling of alpha-synuclein in coronal striatum sections of exposed rats; type: in vivo, rat; details: 20 mg/kg/day oral 7 days, sacrificed 5 weeks after last dose
Source text: Male albino Sprague Dawley rats (adults weighing […]) were housed in a temperature-controlled room with free access to food and water.
A platform for electrophysiological and behavioral monitoring of the rats was used. For this, a subcutaneous implant (Data Science) was placed in the rats which allowed the EEG to be recorded by telemetry, leaving the animal completely free to move about. The cage was equipped with a video camera (10 frames per second) and an infrared light to allow recordation of the animal's activity. The EEG and video sequences were recorded in sequences of 10 seconds, and a set of variables was calculated for each sequence. The use of dedicated software allowed integration of these variables over the entire recording to detect changes in the animal's activity, EEG, and circadian rhythms. Each animal served as its own control because it was recorded for 5 days prior to furosemide pyridinium administration. The solution of furosemide pyridinium (20 mg) was dissolved in dimethylsulfoxide (DMSO, 200 μl) and then diluted with water (50 ml). The solution was replaced every day and administered for 7 days in the drinking water at a dose of 20 mg/kg. The rats were then sacrificed 5 weeks after the last dose. The rats were anesthetized with pentobarbital and infused intracardially with saline ([…]), then fixed with 4% paraformaldehyde. […]

[2] = system: mitochondria isolated from rat striatum; assay: Respiratory control (oxygen consumption) of isolated striatum mitochondria; type: biochemical
Procedure: The animal was then decapitated in order to collect from the brain either the cortex or the striatum, which were quickly placed in a Potter Elvejhem® containing 6 ml of extraction buffer at 4° C. (250 mM sucrose, 40 mM KCl, 2 mM EGTA, lmg/ml BSA, 20 mM Tris, pH=7.2). This mixture was homogenized to break open the cells and release the mitochondria and then centrifuged at 2000 g for 8 minutes to remove the larger membrane debris and the nuclei from the pellet. The supernatant was then recovered and centrifuged at 13,000 g for 11 minutes. The supernatant was discarded while the pellet containing a mitochondria-rich fraction was resuspended in 500 μl of respiration buffer at 4° C. (300 mM D-mannitol, 10 mM KCl, 10 mM KH2PO4, 5 mM MgCl2, pH=7.2). […]
Added to the polarography chamber (Hansatech) were 30 μl of mitochondria solution (0.2 mg), 460 μL of respiration buffer, 5 μl of test compound solution (meaning MPP+ or furosemide pyridinium) (or its solubilizing solvent). […] The effect of the compound on respiratory control was evaluated (ratio of stage 3 to 4), which corresponds to the coupling of the respiratory chain, or in other words the ATP synthesis at complex V and the oxygen consumption due to complexes I to IV. The results are expressed as percentages of the value measured for mitochondria not treated with the test compound (but treated with the solubilizing solvent).

[3] = system: caspase-9; assay: Caspase-9 activity (Ac-LEHD-AFC cleavage) in SH-SY5Y cells; type: cell-based, human; details: 1 mM, 96 h
Procedure: Measurement of the activities of the various caspases is based on the ability of the caspases to cleave specific fluorescent substrates: Ac-DEVD-AFC for caspase-3, Ac-IETD-AFC for caspase-8, or Ac-LEHD-AFC for caspase-9. SH-SY5Y neuronal cells were incubated in 48-well plates with either furosemide pyridinium (1 mM) for 96 h or with MPP+ (1 mM) for 6 h, then 24 h of incubation with no MPP+. After incubation, the cells were trypsinized, then rinsed with PBS and counted, then harvested in 100 μl of buffer containing 30 mM HEPES, 0.3 mM EDTA, 100 mM NaCl, 0.15% Triton X-100, and 10 mM DTT. The cell extract was then incubated for 1 hour at 37° C. with the specific substrate (100 μM) in a 96-well plate. Fluorescence was measured at λex400 nm and λem505 nm in a fluorescence detection plate reader (TECAN Infinite M1000) (Yue et al., supra). The results were expressed as percentages relative to the measured activity of cells cultured under the same conditions and not subjected to any treatment.

[4] = system: tyrosine hydroxylase; assay: Immunohistochemistry of tyrosine hydroxylase in exposed mice; type: in vivo, mouse; details: 20 mg/kg/day oral 7 days, 30 days after end of exposure
Procedure: (§1) Swiss mice were divided into two groups of five animals (experimental and control). The experiments were performed independently two times. The mice of the experimental group were exposed to furosemide pyridinium for 7 days at a daily dose of 20 mg/kg. The furosemide pyridinium was administered orally in the drinking water. The mice were sacrificed 30 days after the end of the furosemide pyridinium treatment.
For this, the mice were anesthetized with pentobarbital (50 mg/Kg), then an intracardiac infusion of NaCl (0.9%) was administered, followed by fixation by an infusion of 4% paraformaldehyde in 0.1M phosphate buffer, pH 7.2. The brain was removed, placed in NaCl (0.9%) at 4° C., and frozen in Tissue Tek immersed in a cold isopentane bath. Coronal sections of eight microns were obtained using a cryostat and were processed for immunohistochemistry (labeling the tyrosine hydroxylase and the Ser129-phosphorylated alpha-synuclein).

[5] = system: mice; assay: Lethality of 7-day oral administration in mice; type: in vivo, mouse; details: daily dose of 20 mg/kg for seven days
Procedure: as §1

NS(=O)(=O)c1cc(C(=O)[O-])c(-[n+]2cccc(O)c2)cc1Cl [furosemide pyridinium, 4-chloro-2-(3-hydroxypyridinium-1-yl)-5-sulfamoylbenzoate]
alpha-synuclein in the striata (immunolabeling) [1]: significant increase
effect on striatal mitochondria versus cortex mitochondria ([2]; comparison striatum vs cortex): greater on striatal mitochondria
oxygen consumption of striatum mitochondria ([2]; dose-response): decrease in oxygen consumption
enzymatic activity of caspase-9 compared to untreated cells [3]: 170%
labeling of tyrosine hydroxylase in the striata [4]: net reduction
lethality [5]: not lethal
